Test results as given in ChEMBL document CHEMBL5154930, “Design, Synthesis, and Biological Evaluations of DOT1L Peptide Mimetics Targeting the Protein-Protein Interactions between DOT1L and MLL-AF9/MLL-ENL” (J Med Chem, 2022).
Active and inactive are the calls of the source. The calls are words filed in the database; no cut-off is given here.

Tests used:
MOLM-13 [1] = assay: Inhibition of methylation of H3K79 in human MOLM-13 cells assessed as inhibition of methylation at HOXA11 gene cluster by chromatin immunoprecipitation assay; format: functional, cell-based
MOLM-13 [2] = assay: Inhibition of MEIS1 gene expression in human MOLM-13 cells measured at 0.125 to 0.5 uM after 6 days by RT-qPCR analysis; format: functional, cell-based; conditions: dose 0.125-0.5 µM, time 6.0 day
RS4-11 = assay: Anticancer activity against human RS4-11 cells assessed as inhibition of cell growth treated for 8 days measured by CCK-8 kit method; format: functional, cell-based; conditions: RS4-11, 192 h
MOLM-13 [3] = assay: Down regulation of TUBA1B gene in human MOLM-13 cells by RNA-sequencing analysis; format: functional, cell-based
MOLM-13 [4] = assay: Inhibition of MEIS1 expression in human MOLM-13 cells at 0.25 uM by RT-qPCR analysis; format: functional, cell-based; conditions: time 2-6 day, TDE = time-dependent effect
MOLM-13 [5] = assay: cells; conditions: Homo sapiens, MOLM-13, 96 h
Description: Anticancer activity against human MOLM-13 cells harbouring MLL-AF9 assessed as inhibition of cell growth treated for 4 days measured by CCK-8 kit method

MOLM-13 [6] = assay: Inhibition of methylation of H3K79 in human MOLM-13 cells assessed as inhibition of methylation at HOXA1 gene cluster by chromatin immunoprecipitation assay; format: functional, cell-based
MOLM-13 [7] = assay: Down regulation of CNOT6L gene in human MOLM-13 cells by RNA-sequencing analysis; format: functional, cell-based
MOLM-13 [8] = assay: Down regulation of PBX3 gene in human MOLM-13 cells by RNA-sequencing analysis; format: functional, cell-based
MOLM-13 [9] = assay: Disruption of AF9-mediated DOT1L recruitment in human […] cells assessed as decrease in global H3K79 methylation level at 0.125 uM measured after 8 days by Western blotting analysis; format: cell-based; conditions: time 8.0 day
MOLM-13 [10] = assay: Inhibition of methylation of H3K79 in human MOLM-13 cells assessed as inhibition of methylation at MEIS1-AS3 gene cluster by chromatin immunoprecipitation assay; format: functional, cell-based
MOLM-13 [11] = assay: Inhibition of HOXA9 gene expression in human MOLM-13 cells measured at 0.125 to 0.5 uM after 6 days by RT-qPCR analysis; format: functional, cell-based; conditions: dose 0.125-0.5 µM, time 6.0 day
K562 = assay: Anticancer activity against human K562 cells assessed as inhibition of cell growth treated for 8 days measured by CCK-8 kit method; format: functional, cell-based; conditions: K562, 192 h
MOLM-13 [12] = assay: cells; conditions: Homo sapiens, MOLM-13, 168 h
Description: Anticancer activity against human MOLM-13 cells harbouring MLL-AF9 assessed as inhibition of cell growth treated for 7 days measured by CCK-8 kit method

MOLM-13 [13] = assay: Inhibition of methylation of H3K79 in human MOLM-13 cells assessed as inhibition of methylation at HOXA3 gene cluster by chromatin immunoprecipitation assay; format: functional, cell-based
MOLM-13 [14] = assay: Down regulation of HOXA10 gene in human MOLM-13 cells by RNA-sequencing analysis; format: functional, cell-based
MOLM-13 [15] = assay: Inhibition of methylation of H3K79 in human MOLM-13 cells assessed as inhibition of methylation at HOXA4 gene cluster by chromatin immunoprecipitation assay; format: functional, cell-based
MOLM-13 [16] = assay: Down regulation of CDK6 gene in human MOLM-13 cells by RNA-sequencing analysis; format: functional, cell-based
MOLM-13 [17] = assay: Inhibition of methylation of H3K79 in human MOLM-13 cells assessed as inhibition of methylation at HOXA5 gene cluster by chromatin immunoprecipitation assay; format: functional, cell-based
MOLM-13 [18] = assay: cells; conditions: Homo sapiens, MOLM-13, 120 h
Description: Anticancer activity against human MOLM-13 cells harbouring MLL-AF9 assessed as inhibition of cell growth treated for 5 days measured by CCK-8 kit method

MOLM-13 [19] = assay: Down regulation of MEF2C gene in human MOLM-13 cells by RNA-sequencing analysis; format: functional, cell-based
MOLM-13 [20] = assay: cells; conditions: Homo sapiens, MOLM-13, 192 h
Description: Anticancer activity against human MOLM-13 cells harbouring MLL-AF9 assessed as inhibition of cell growth treated for 8 days measured by CCK-8 kit method

MOLM-13 [21] = assay: Induction of apoptosis in human MOLM-13 cells at 0.125 to 0.5 uM treated for 7 days by Annexin V-FITC/PI staining based flow cytometry analysis; format: functional, cell-based; conditions: dose 0.125-0.5 µM, time 7.0 day
MOLM-13 [22] = assay: Inhibition of methylation of H3K79 in human MOLM-13 cells assessed as inhibition of methylation at HOXA10 gene cluster by chromatin immunoprecipitation assay; format: functional, cell-based
MOLM-13 [23] = assay: Inhibition of methylation of H3K79 in human MOLM-13 cells assessed as inhibition of methylation at MEIS1 gene cluster by chromatin immunoprecipitation assay; format: functional, cell-based
MOLM-13 [24] = assay: cells; conditions: Homo sapiens, MOLM-13, 216 h
Description: Anticancer activity against human MOLM-13 cells harbouring MLL-AF9 assessed as inhibition of cell growth treated for 9 days measured by CCK-8 kit method

MOLM-13 [25] = assay: Down regulation of HPGD gene in human MOLM-13 cells by RNA-sequencing analysis; format: functional, cell-based
MOLM-13 [26] = assay: cells; conditions: Homo sapiens, MOLM-13, 144 h
Description: Anticancer activity against human MOLM-13 cells harbouring MLL-AF9 assessed as inhibition of cell growth treated for 6 days measured by CCK-8 kit method

MOLM-13 [27] = assay: Inhibition of HOXA9 gene expression in human MOLM-13 cells at 0.25 uM by RT-qPCR analysis; format: functional, cell-based; conditions: time 2-6 day, TDE = time-dependent effect
MOLM-13 [28] = assay: Down regulation of JMJD1C gene in human MOLM-13 cells by RNA-sequencing analysis; format: functional, cell-based
MOLM-13 [29] = assay: Down regulation of HOXA5 gene in human MOLM-13 cells by RNA-sequencing analysis; format: functional, cell-based
MOLM-13 [30] = assay: Inhibition of methylation of H3K79 in human MOLM-13 cells assessed as inhibition of methylation at […] gene cluster by chromatin immunoprecipitation assay; format: functional, cell-based
MOLM-13 [31] = assay: Down regulation of SSBP2 gene in human MOLM-13 cells by RNA-sequencing analysis; format: functional, cell-based
MOLM-13 [32] = assay: Down regulation of HOXA3 gene in human MOLM-13 cells by RNA-sequencing analysis; format: functional, cell-based
MOLM-13 [33] = assay: Down regulation of SKP2 gene in human MOLM-13 cells by RNA-sequencing analysis; format: functional, cell-based
MOLM-13 [34] = assay: Down regulation of RUNX1 gene in human MOLM-13 cells by RNA-sequencing analysis; format: functional, cell-based
MOLM-13 [35] = assay: Down regulation of DCUN1D1 gene in human MOLM-13 cells by RNA-sequencing analysis; format: functional, cell-based
KOPN-8 = assay: cells; conditions: Homo sapiens, KOPN-8, 192 h
Description: Anticancer activity against human KOPN-8 cells harbouring MLL-ENL assessed as inhibition of cell growth treated for 8 days measured by CCK-8 kit method

MOLM-13 [36] = assay: Down regulation of HOXA11 gene in human MOLM-13 cells by RNA-sequencing analysis; format: functional, cell-based
MOLM-13 [37] = assay: Inhibition of methylation of H3K79 in human MOLM-13 cells assessed as inhibition of methylation at HOXA6 gene cluster by chromatin immunoprecipitation assay; format: functional, cell-based
MOLM-13 [38] = assay: Down regulation of AC011043.1 gene in human MOLM-13 cells by RNA-sequencing analysis; format: functional, cell-based
MV4-11 = assay: Anticancer activity against human MV4-11 cells assessed as inhibition of cell growth treated for 8 days measured by CCK-8 kit method; format: functional, cell-based; conditions: MV4-11, 192 h
MOLM-13 [39] = assay: Down regulation of HOXA9 gene in human MOLM-13 cells by RNA-sequencing analysis; format: functional, cell-based
MOLM-13 [40] = assay: Inhibition of methylation of H3K79 in human MOLM-13 cells assessed as inhibition of methylation at HOXA7 gene cluster by chromatin immunoprecipitation assay; format: functional, cell-based
MOLM-13 [41] = assay: Down regulation of CDK1 gene in human MOLM-13 cells by RNA-sequencing analysis; format: functional, cell-based
MOLM-13 [42] = assay: Inhibition of methylation of H3K79 in human MOLM-13 cells assessed as inhibition of methylation at HOXA2 gene cluster by chromatin immunoprecipitation assay; format: functional, cell-based
MOLM-13 [43] = assay: Down regulation of ARID1B gene in human MOLM-13 cells by RNA-sequencing analysis; format: functional, cell-based
MOLM-13 [44] = assay: Down regulation of CDKN1B gene in human MOLM-13 cells by RNA-sequencing analysis; format: functional, cell-based
MOLM-13 [45] = assay: Down regulation of […] gene in human MOLM-13 cells by RNA-sequencing analysis; format: functional, cell-based
MOLM-13 [46] = assay: Inhibition of methylation of H3K79 in human MOLM-13 cells assessed as inhibition of methylation at HOXA13 gene cluster by chromatin immunoprecipitation assay; format: functional, cell-based
MOLM-13 [47] = assay: Down regulation of MEIS1 gene in human MOLM-13 cells by RNA-sequencing analysis; format: functional, cell-based
MOLM-13 [48] = assay: Down regulation of ARID2 gene in human MOLM-13 cells by RNA-sequencing analysis; format: functional, cell-based
MOLM-13 [49] = assay: Down regulation of GATA2 gene in human MOLM-13 cells by RNA-sequencing analysis; format: functional, cell-based
MOLM-13 [50] = assay: Down regulation of MCM2 gene in human MOLM-13 cells by RNA-sequencing analysis; format: functional, cell-based
MOLM-13 [51] = assay: Down regulation of GBE1 gene in human MOLM-13 cells by RNA-sequencing analysis; format: functional, cell-based
MOLM-13 [52] = assay: Inhibition of methylation of H3K79 in human MOLM-13 cells assessed as inhibition of methylation at HOXA9 gene cluster by chromatin immunoprecipitation assay; format: functional, cell-based
MOLM-13 [53] = assay: Inhibition of methylation of H3K79 in human MOLM-13 cells assessed as inhibition of methylation at HOXA-AS2 gene cluster by chromatin immunoprecipitation assay; format: functional, cell-based

## CC(C)N(C[C@H]1O[C@@H](n2cnc3c(N)ncnc32)[C@H](O)[C@@H]1O)[C@H]1C[C@@H](CCc2nc3cc(C(C)(C)C)ccc3[nH]2)C1 [PINOMETOSTAT]
MOLM-13 [1]
  inhibition: Active
MOLM-13 [2]
  inhibition: Active
RS4-11
  IC50: 70 nM
MOLM-13 [3]
  Activity: Active
MOLM-13 [4]
  inhibition: Tde
MOLM-13 [5]
  IC50: 227 nM
MOLM-13 [6]
  inhibition: Active
MOLM-13 [7]
  Activity: Active
MOLM-13 [8]
  Activity: Active
MOLM-13 [9]
  inhibition: 100%
MOLM-13 [10]
  inhibition: Active
MOLM-13 [11]
  inhibition: Active
K562
  IC50: 31000 nM
MOLM-13 [12]
  IC50: 59 nM
MOLM-13 [13]
  inhibition: Active
MOLM-13 [14]
  Activity: Active
MOLM-13 [15]
  inhibition: Active
MOLM-13 [16]
  Activity: Active
MOLM-13 [17]
  inhibition: Active
MOLM-13 [18]
  IC50: 97 nM
MOLM-13 [19]
  Activity: Active
MOLM-13 [20]
  IC50: 30 nM
MOLM-13 [21]
  Activity: Active
MOLM-13 [22]
  inhibition: Active
MOLM-13 [23]
  inhibition: Active
MOLM-13 [24]
  IC50: 21 nM
MOLM-13 [25]
  Activity: Active
MOLM-13 [26]
  IC50: 73 nM
MOLM-13 [27]
  inhibition: Tde
MOLM-13 [28]
  Activity: Active
MOLM-13 [29]
  Activity: Active
MOLM-13 [30]
  inhibition: Active
MOLM-13 [31]
  Activity: Active
MOLM-13 [32]
  Activity: Active
MOLM-13 [33]
  Activity: Active
MOLM-13 [34]
  Activity: Active
MOLM-13 [35]
  Activity: Active
KOPN-8
  IC50: 60 nM
MOLM-13 [36]
  Activity: Active
MOLM-13 [37]
  inhibition: Active
MOLM-13 [38]
  Activity: Active
MV4-11
  IC50: 50 nM
MOLM-13 [39]
  Activity: Active
MOLM-13 [40]
  inhibition: Active
MOLM-13 [41]
  Activity: Active
MOLM-13 [42]
  inhibition: Active
MOLM-13 [43]
  Activity: Active
MOLM-13 [44]
  Activity: Active
MOLM-13 [45]
  Activity: Active
MOLM-13 [46]
  inhibition: Active
MOLM-13 [47]
  Activity: Active
MOLM-13 [48]
  Activity: Active
MOLM-13 [49]
  Activity: Active
MOLM-13 [50]
  Activity: Active
MOLM-13 [51]
  Activity: Active
MOLM-13 [52]
  inhibition: Active
MOLM-13 [53]
  inhibition: Active
